One data set addresses T1, MRGPRX2 (Homo sapiens, UniProt Q96LB1).
T1 sequence (Q96LB1 1-330): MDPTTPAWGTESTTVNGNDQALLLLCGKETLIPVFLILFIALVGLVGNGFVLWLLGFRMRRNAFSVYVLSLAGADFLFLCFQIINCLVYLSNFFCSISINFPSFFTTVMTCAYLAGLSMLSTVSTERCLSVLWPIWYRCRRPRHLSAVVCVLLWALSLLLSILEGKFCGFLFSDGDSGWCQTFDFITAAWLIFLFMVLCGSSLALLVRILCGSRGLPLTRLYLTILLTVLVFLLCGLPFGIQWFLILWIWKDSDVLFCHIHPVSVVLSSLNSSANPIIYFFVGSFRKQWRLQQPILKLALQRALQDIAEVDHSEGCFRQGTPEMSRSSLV
The data set is described as follows: β-hexosaminidase release, LAD2 cells. It counts as cell-based. The following applies: versus SP (0.3 µM). As for the experimental part:
PSB-172656 inhibited MRGPRX2-mediated Ca^2+ mobilization in LAD2 cells (see Supplementary Fig. S4).
Fig. 6 PSB-172656 inhibits MRGPRX2-mediated mast cell degranulation. a LAD2 cells were incubated with buffer (control) or various concentrations of MRGPRX2 antagonist PSB-172656, subsequently exposed to substance P (SP, 0.3 µM), and β-hexosaminidase release was measured. […] Data are expressed as means ± SEM of 3 biological replicates. Statistical significance was determined by one-way ANOVA (Tukey’s multiple comparisons), compared to the effect of SP in the absence of PSB-172656 (P-value*** < 0.001). b Potential cytotoxicity of PSB-172656 was determined in 3-[4,5-dimethylthiazol-2-yl]-2,5-diphenyl tetrazolium bromide (MTT) assays performed on LAD2 cells. Cells were treated with different concentrations of PSB-172656 for 24 h at 37 °C, and the optic density value was determined at 570 nm (the viability of untreated cells corresponds to 100% cell viability). […] Mean fluorescence intensity (MFI) levels of e CD107a and f CD63 are depicted. […] Degranulation is characterized by the release of β-hexosaminidase, expressed as a percentage of the total content. h Human skin MCs were incubated with different concentrations of PSB-172656 for 30 min followed by stimulation with CST-14 (1 µM). […]
Degranulation as determined by β-hexosaminidase release was performed as described previously.[66],[67] […]

Data set [1] can be described thus: Metabolic stability in human liver microsomes. It counts as in vitro ADME. The following applies: human liver microsomes 0.25 mg/ml, compound 1 µM. For orientation: Liver microsomes are vesicles of endoplasmic reticulum, rich in cytochrome P450 enzymes.
The subject of data set [2] is IgE-mediated degranulation. The data set is described as follows: IgE-mediated degranulation (DNP-BSA) of RBL-MRGPRX2 cells sensitized with DNP-specific IgE. The class given is cell-based, rat. The following applies: 0.1 and 0.3 µM; DNP-BSA 10 and 30 ng/mL. As for the experimental part: Having a competitive MRGPRX2 antagonist with subnanomolar potency in hand, we next studied its effects on MCs. Activation of MRGPRX2, which is highly expressed in skin MCs, results in degranulation and histamine release.[19] We therefore investigated whether PSB-172656 inhibits MRGPRX2-mediated MC activation utilizing the rat MC line RBL-2H3 recombinantly expressing the human MRGPRX2 (designated RBL-MRGPRX2). These cells were treated with two different concentrations of PSB-172656 (100 nM and 300 nM), and then exposed to different MRGPRX2 agonists, namely C48/80 (0.3 µg/mL), SP (0.3 µM), and PAMP-12 (0.1 µM), respectively. Degranulation of the cells was assayed by β-hexosaminidase release measurements.
Fig. 5 PSB-172656 blocks MRGPRX2-induced mast cell degranulation without affecting IgE-mediated responses. a RBL-MRGPRX2 cells were incubated with control (vehicle) or preincubated with PSB-172656 (100 or 300 nM), followed by stimulation with C48/80 (0.3 µg/mL), substance P (SP; 0.3 µM), or PAMP-12 (0.1 µM), and β-hexosaminidase release was measured. RBL-MRGPRX2 cells were sensitized with monoclonal anti-dinitrophenyl antibody (DNP-specific IgE), and degranulation induced by 2,4-dinitrophenylated bovine serum albumin (DNP-BSA, 10 and 30 ng/mL) was measured without or after preincubation with PSB-172656 (0.1 and 0.3 µM). […] Data are expressed as means ± SEM of 3 biological replicates. […]

The structures appear in SMILES notation. pIC50: −log10 of the molar value.

These results are taken from paper PMC12010006, “Subnanomolar MAS-related G protein-coupled receptor-X2/B2 antagonists with efficacy in human mast cells and disease models” (Signal Transduction and Targeted Therapy, 2025).

For the molecule `CCc1c(C(C)C)[nH]c2nc3cc(F)c(F)cc3n2c1=O` [Compound 24, 3-ethyl-7,8-difluoro-2-isopropylbenzo[4,5]imidazo [1,2-a] pyrimidin-4(1H)-one], the pIC50 (as a rule, the negative decadic logarithm of the IC50, by convention in mol/L) at MRGPRX2 was 8.28. Moreover, in data set [1] (both sexes, human, liver microsomes, read-out: T1/2 (half-life)), the half-life at 1 µM came to 1.53 h. The microsomal CLint at 1 µM in data set [1] (both sexes, read-out: Clint (intrinsic clearance)) worked out at 15 µL/min/mg. In addition, the “T1/2 (half-life)” value was 1.54 h in data set [1] and above 1.5 h in data set [1] (listed as PSB-172656). The “effect on IgE-mediated degranulation induced by DNP-BSA” value in data set [2] is on record as “did not inhibit”.
